Legend:
[1] = biological target: T1, KCNQ2/3 channels (Homo sapiens, UniProt O43525+O43526); experiment: Fluorescence assay using a voltage sensitive dye (fluorimetry); type: cell-based; details: CHO-K1 cells expressing KCNQ2/3 channels; for Emax: agonistic efficacy relative to retigabine = 100%
T1 construct: expressed in transfected cells; host or cells: CHO-K1 cells, kept under selection antibiotics
Procedure: Method I. Fluorescence Assay Using a Voltage Sensitive Dye
Human CHO-K1 cells expressing KCNQ2/3 channels are cultivated adherently at 37° C., 5% CO2 and 95% humidity in cell culture bottles (e.g. 80 cm^2 TC flasks, Nunc) with DMEM-high glucose (Sigma Aldrich, D7777) including 10% FCS (PAN Biotech, e.g. 3302-P270521) or alternatively MEM Alpha Medium (1×, liquid, Invitrogen, #22571), 10% fetal calf serum (FCS) (Invitrogen, #10270-106, heat-inactivated) and the necessary selection antibiotics.
Before being sown out for the measurements, the cells are washed with a 1× DPBS buffer without Ca^2+/Mg^2+ (e.g. Invitrogen, #14190-094) and detached from the bottom of the culture vessel by means of Accutase (PAA Laboratories, #L11-007) (incubation with Accutase for 15 min at 37° C.). The cell count then present is determined using a CASY™ cell counter (TCC model, Schärfe System) in order subsequently to apply, depending on the density optimization for the individual cell line, 20,000-30,000 cells/well/100 μl of the described nutrient medium to 96-well measuring plates of the Corning™ CellBIND™ type (Flat Clear Bottom Black Polystyrene Microplates, #3340). Incubation is then carried out for one hour at room temperature, without gassing or adjusting the humidity, followed by incubation for 24 hours at 37° C., 5% CO2 and 95% humidity.
The voltage-sensitive fluorescent dye from the Membrane Potential Assay Kit (Red™ Bulk format part R8123 for FLIPR, MDS Analytical Technologies™) is prepared by dissolving the contents of a vessel Membrane Potential Assay Kit Red Component A in 200 ml of extracellular buffer (ES buffer, 120 mM NaCl, 1 mM KCl, 10 mM HEPES, 2 mM CaCl2, 2 mM MgCl2, 10 mM glucose; pH 7.4). After removal of the nutrient medium, the cells are washed with 200 μl of ES buffer, then covered with a layer of 100 μl of the dye solution prepared above and incubated for 45 min at room temperature with the exclusion of light.
The fluorescence measurements are carried out with a BMG Labtech FLUOstar™, BMG Labtech NOVOstar™ or BMG Labtech POLARstar™ instrument (525 nm excitation, 560 nm emission, Bottom Read mode). After incubation of the dye, 50 μl of the test substances in the desired concentrations, or 50 μl of ES buffer for control purposes, are introduced into separate cavities of the measuring plate and incubated for 30 min at room temperature while being shielded from light. The fluorescence intensity of the dye is then measured for 5 min and the fluorescence value F1 of each well is thus determined at a given, constant time. 15 μl of a […] KCl solution ([…]) are then added to each well. The change in fluorescence is subsequently measured until all the relevant measured values have been obtained (mainly 5-30 min). At a given time after KCl application, a fluorescence value F2 is determined, in this case at the time of the fluorescence peak.
For calculation, the fluorescence intensity F2 is compared with the fluorescence intensity F1, and the agonistic activity of the target compound on the potassium channel is determined therefrom. F2 and F1 are calculated as follows: […]
A substance has an agonistic activity on the potassium channel when
[formula] is to be observed as the dosage of the target compound increases. Calculations of EC50 and IC50 values are carried out with the aid of ‘Prism v4.0’ software (GraphPad Software™).

[2] = test system: withdrawal reflex of the rat tail (tail flick); experiment: Low-intensity tail flick test (rat); type: in vivo; details: dose 10.00 mg/kg (in brackets in the cell)
Procedure: Method II. Low-Intensity Tail Flick Test (Rat)
In the low-intensity tail flick test, the determination of the antinociceptive effect of the compounds according to the invention towards an acute noxious thermal stimulus is carried out by measuring the withdrawal reflex of the rat tail (tail flick) in response to a radiant heat beam (analgesia meter; model 2011 of the company Rhema Labortechnik, Hofheim, Germany) according to the method described by D'Amour and Smith (J. Pharm. Exp. Ther. 72, 74 79 (1941). To this end, the rats were placed in a plexiglas restrainer, and a low-intensity radiant heat beam (48° C.) was focused onto the dorsal surface of the tail root. The stimulus intensity was adjusted to result in a mean pre-drug control withdrawal latency of about 7 s, thus also allowing a supraspinal modulation of the spinally mediated acute nociceptive reflex. […] Before administration of a compound according to the invention, the animals were pre-tested twice in the course of five minutes and the mean of these measurements was calculated as the pre-test mean. The antinociceptive effect was determined at 20, 40 and 60 min after peroral compound administration. The antinociceptive effect was calculated based on the increase in the tail withdrawal latency according to the following formula and is expressed as percentage of the maximum possible effect (MPE [%]): MPE=[(T1−T0)/(T2−T0)]*100 […]

Row | EC50 [1] [nM] | Emax [1] [%] | SMILES | Low intensity tail flick, rat, peroral, % MPE (dose [mg/kg]) [2]
1 | 1950 | 164 | Cc1c(C(=O)NCc2cccc(F)c2)n(C)c(=O)c2cc(C(F)(F)F)ccc12 [Example 1, N-(3-fluorobenzyl)-2,4-dimethyl-1-oxo-7-(trifluoromethyl)-1,2-dihydroisoquinoline-3-carboxamide] | 
2 | 124 | 134 | CCCn1c(C(=O)NCc2cccc(F)c2)c(C)c2ccc(C(F)(F)F)cc2c1=O [Example 2, N-(3-fluorobenzyl)-4-methyl-1-oxo-2-propyl-7-(trifluoromethyl)-1,2-dihydroisoquinoline-3-carboxamide] | 10 (10.00) % MPE
3 | 196 | 103 | CCn1c(C(=O)NCc2cccc(F)c2)c(C)c2ccc(C(F)(F)F)cc2c1=O [Example 3, 2-ethyl-N-(3-fluorobenzyl)-4-methyl-1-oxo-7-(trifluoromethyl)-1,2-dihydroisoquinoline-3-carboxamide] | 
4 | 381 | 144 | Cc1c(C(=O)NCc2cccc(F)c2)n(C(C)C)c(=O)c2cc(C(F)(F)F)ccc12 [Example 4, N-(3-fluorobenzyl)-2-isopropyl-4-methyl-1-oxo-7-(trifluoromethyl)-1,2-dihydroisoquinoline-3-carboxamide] | 
5 | 283 | 87 | COCCn1c(C(=O)NCc2cccc(F)c2)c(C)c2ccc(C(F)(F)F)cc2c1=O [Example 5, N-(3-fluorobenzyl)-2-(2-methoxyethyl)-4-methyl-1-oxo-7-(trifluoromethyl)-1,2-dihydroisoquinoline-3-carboxamide] | 

Source: patent publication US8618129B2, “Substituted 1-oxo-dihydroisoquinoline-3-carboxamides as KCNQ2/3 modulators” (Gruenenthal GmbH, priority 2010, dated 2013)
